What was measured:
[1] = test system: recruitment of CDK9 to HEXIM1 gene in MCF7 cells; test: ChIP assay, CDK9 recruitment to HEXIM1 gene, MCF7 cells; format: cell-based; conditions: 5 mM HMBA or 50 μM 4a1, 90 minutes
Experimental: (§1) FIGS. 6(A-B) illustrate graphs showing HEXIM1 graphs showing HMBA and 4a1 induced recruitment of CDK9 to HEXIM1 promoter in MCF7 and LNCaP cells treated with 5 mM HMBA or 50 μM 4a1 for 90 minutes.
(§2) ChIP assays were carried out as previously described. Anti-CDK9 antibody (D-7; cat# sc-13130) was obtained from Santa Cruz Biotechnology.
(§3) The induction of HEXIM1 by HMBA appears to involve the release of free P-TEFb from 7SK snRNP, and recruitment of P-TEFb to HEXIM1 gene. P-TEFb is a heterodimer between the cyclin-dependent kinase 9 (Cdk9) and its regulatory subunit Cyclin T1 (CycT1). We thus determined the regulation of the recruitment of CDK9 to the HEXIM1 coding sequence by HMBA and 4a1.

[2] = test system: recruitment of CDK9 to HEXIM1 gene in LNCaP cells; test: ChIP assay, CDK9 recruitment to HEXIM1 gene, LNCaP cells; format: cell-based; conditions: 5 mM HMBA or 50 μM 4a1, 90 minutes
Experimental: as §1, §2, §3

[3] = test system: p21 expression in breast cancer MCF7 cells; test: p21 expression by western blot, MCF7 cells; format: cell-based; conditions: 5 mM HMBA or 50 μM 4a1, 18 hours
Experimental: (§4) FIGS. 7(A-B) illustrate Western blots showing (A) MCF7 (control siRNA or HEXIM1 siRNA) and (B) LNCaP (control shRNA or HEXIM1 shRNA) cells treated with vehicle (DMSO), 5 mM HMBA, or 50 μM 4a1 for 18 hours.
(§5) Cell lysates were analyzed by western blot as previously described. Anti-HEXIM1 was generated in the Montano laboratory. Primary antibodies against p21 (C-19; cat# sc-397), cyclin D1 (HD11; cat# sc-246) and myc (9E10; cat# sc-40) were obtained from Santa Cruz Biotechnology. Anti-GAPDH was obtained from Millipore. Anti-HIF-1α was obtained from Oxy-cell, Bioresearch).
(§6) HMBA was investigated in a Phase II clinical trial due to its potent anti-cancer and cell differentiation activities. Moreover, the roles of HMBA, and potentially 4a1, as differentiating factors are advantageous for their therapeutic use when compared to cytotoxic agents. […] We also examined the ability of 4a1 to induce differentiation and the relative role of HEXIM1.

[4] = test system: p21 expression in prostate cancer LNCaP cells; test: p21 expression by western blot, LNCaP cells; format: cell-based; conditions: 5 mM HMBA or 50 μM 4a1, 18 hours
Experimental: as §4, §5, §6

MCF7 cells = test: Nile red staining of lipid droplets (differentiation marker), MCF7 cells; format: cell-based; conditions: 72 hours
Experimental: (§7) FIGS. 8(A-B) illustrate images showing (A) MCF7 cells transfected with control or HEXIM1 siRNA or (B) MDA-MB-231 transfected with control or HEXIM1 expression vector treated with vehicle (DMSO), HMBA, or 4a1 for 72 hours. Lower panels show Western blot analyses of HEXIM1 expression in MDA-MB-231 cells transfected with control or expression vector for Flag-tagged HEXIM1.
(§8) Cells were stained with Nile red for lipid droplets (marker of cell differentiation). Briefly, the stock solution of Nile red 1 mg/ml in acetone was diluted in PBS (1:1000). The fixed cells (4% paraformaldehyde) were incubated with diluted Nile red for 5 minutes at room temperature, rinsed with PBS and observed for the presence of lipid droplets by confocal microscopy. Images were digitally captured using a Leica microscope (Leica Microsystems Inc, IL, USA).

[5] = test system: triple negative MDA-MB-231 breast cancer cells; test: Nile red staining of lipid droplets (differentiation marker), MDA-MB-231 cells; format: cell-based; conditions: 72 hours
Experimental: as §7, §8

[6] = test system: HEXIM1 expression in MCF7/TOTR cells; test: HEXIM1 expression in tamoxifen resistant MCF7/TOTR cells; format: cell-based; conditions: 5 mM HMBA or 50 μM 4a1
Experimental: (§9) FIGS. 9(A-B) illustrate a Western blot and plots showing HEXIM1 expression in MCF7 and MCF7(TOTR) cells in the presence of vehicle (DMSO), 5 mM HMBA or 50 μM 4a1.
(§10) MCF7, MDA-MB-231, and LNCaP cells were obtained from the American Tissue Culture Collection, and were maintained as previously described. Construction of expression vectors for control miRNA or HEXIM1 miRNAs were described previously. MCF7 or LNCaP cells were transfected with expression vectors containing either the HEXIM1 miRNA insert or a control miRNA insert as previously described. Following blasticidin selection, cells expressing the highest level of GFP were flow-sorted and expanded. MDA-MB-231 cells were transfected with control or expression vector for Flag-tagged HEXIM1 as previously described. […]
Cell lysates were analyzed by western blot as previously described. […]
(§11) We have reported that HEXIM1 is required for the ability of antiestrogens to inhibit the activity of the Estrogen Receptor, that loss of HEXIM1 results in agonistic activity of tamoxifen, and that recurrence after tamoxifen therapy can be correlated with loss of HEXIM1 expression in human breast tissue samples. Thus we determined if HMBA and 4a1 can enhance sensitivity to tamoxifen of a tamoxifen resistant breast cancer line (MCF7/TOTR). […]

[7] = test system: tamoxifen resistant breast cancer line (MCF7/TOTR); test: MTT proliferation assay, sensitivity to trans-hydroxytamoxifen; format: cell-based; conditions: 7 days, 5 mM HMBA or 50 μM 4a1
Experimental: as §9
as §10, with “expanded.” for “expanded. MDA-MB-231 cells were transfected with control or expression vector for Flag-tagged HEXIM1 as previously described.”
MCF7 cells were plated onto 96 well plates and treated with 17β-estradiol±trans-hydroxytamoxifen in the presence of DMSO (vehicle), HMBA or 4a1 for 7 days. Cell proliferation was assessed using the MTT based Cell Growth Determination Kit from Sigma-Aldrich according to the manufacturer's protocol.
as §11

[8] = test system: HEXIM1 targets in MCF7 cells; test: Western blot of HEXIM1 targets in MCF7 cells; format: cell-based; conditions: 5 mM HMBA or 50 uM 4a1, 18 h, relative to GAPDH
Experimental: FIG. 10 illustrates a Western blot of MCF7 cells treated with vehicle, 5 mM HMBA, or 50 uM 4a1 for 18 h, and processes for analyses of HEXIM1 targets relative to GAPDH.
as §5
To assess the clinical potential of HMBA and 4a1 we need to determine to what extent the targets of HMBA and 4a1 overlap with that of HEXIM1. We focused on direct targets of HEXIM1 that we have identified.

HEXIM1 = conditions: in vitro cell cultures; cited from earlier work
[9] = cited from earlier work
[10] = administered in vivo; cited from earlier work
[11] = in vivo; cited from earlier work

CC(=O)NCCCCCCNC(C)=O [HMBA, Hexamethylene bis-acetamide, reference compound]
Recruitment of CDK9 to HEXIM1 gene [1]: induce recruitment of CDK9 | Recruitment of CDK9 to HEXIM1 gene [2]: induce recruitment of CDK9 | p21 expression [3]: induced p21 expression | p21 expression [4]: induction of p21 expression | Cell differentiation (lipid droplets, Nile red) (MCF7 cells): induced differentiation | Cell differentiation (lipid droplets, Nile red) [5]: induced differentiation | HEXIM1 expression [6]: induced HEXIM1 expression | Sensitivity of TOTR cells to trans-hydroxytamoxifen [7]: enhanced the sensitivity | Expression of proteins directly regulated by HEXIM1 [8]: regulated expression of proteins | Concentrations at which HMBA induces HEXIM1 (HEXIM1): one to five | Water solubility [9]: water soluble | Half-life [10]: short half-life | Tissue distribution [10]: poor tissue distribution | Toxicity in Phase II clinical trial [11]: dose-dependent toxicity
